Experimental data reported in publication PMC8427292, “Identification and Characterization of Antimicrobial Peptides From Butterflies: An Integrated Bioinformatics and Experimental Study” (Frontiers in Microbiology, 2021).
No end group written: not given here.

How the values were obtained:
Escherichia coli biofilm = test: Antibiofilm assay (crystal violet); type: cell-based; parameters: unit not given here; details: E. coli, 570 nm; for MBIC: biofilm formed in presence of AMPs (prevention); for MBEC: pre-formed biofilm (eradication)
Procedure: (§1) Biofilms of the aforementioned microbes were allowed to form in microtiter plates under respective culture conditions in the absence (eradication) or presence (prevention) of AMPs. After incubation, the culture supernatant was discarded, and each well was gently rinsed to remove planktonic bacteria. Biofilms were fixed with methanol and stained with 0.1% crystal violet for 20 min; then the dye bound to the cells was resolubilized with ethanol, and the absorbance of the solution was evaluated at 570 nm using a microplate reader ([Abouelhassan et al., 2017]).

[1] = test system: Staphylococcus aureus biofilm; test: Antibiofilm assay (crystal violet); type: cell-based; parameters: unit not given here; details: S. aureus, 570 nm; for MBEC: biofilm eradication; for MBIC: biofilm prevention
Procedure: as §1

C. albicans = test: In vivo antimicrobial assay, skin infection mouse model; details: neutropenic mice, s.c. 100 μl of 1.0 × 10^8 CFU⋅ml^–1 C. albicans; 100 μl AMP at MIC s.c. daily from 12 h post-infection; day 4; vs control
Procedure: (§2) In vivo antimicrobial activities of the designed AMPs were examined in neutropenic mice following subcutaneous inoculation of 100 μl of 1.0 × 10^8 CFU⋅ml^–1 E. coli, S. aureus, or C. albicans ([Lee et al., 2005]). At 12 h post-infection, 100 μl of AMPs at the respective MIC value was applied by subcutaneous injection each day. Mice were sacrificed on day 4, and the infected area was carefully excised and homogenized. The CFU count was determined after overnight incubation of the homogenate aliquots. All animal care and experiments were performed in compliance with institutional and government guidelines and were approved by the Peking Union Medical College Hospital Animal Care and Use Committee.

Candida albicans biofilm = test: Antibiofilm assay (crystal violet); type: cell-based; details: C. albicans, 570 nm; for MBEC: biofilm eradication; for MBIC: biofilm prevention
Procedure: as §1

E. coli = test: In vivo antimicrobial assay, skin infection mouse model; details: neutropenic mice, s.c. 100 μl of 1.0 × 10^8 CFU⋅ml^–1 E. coli; 100 μl AMP at MIC s.c. daily from 12 h post-infection; day 4; vs control
Procedure: as §2

S. aureus = test: as above; details: neutropenic mice, s.c. 100 μl of 1.0 × 10^8 CFU⋅ml^–1 S. aureus; 100 μl AMP at MIC s.c. daily from 12 h post-infection; day 4; vs control
Procedure: as §2

DKLIGSCVWGAVNYTSDCNAECKRRGYKGGHCGSFANVNCWCET (disulfide (positions not given here)) [DefA, designed synthetic butterfly defensin analog]
MBIC (Escherichia coli biofilm): 8
MBEC (Escherichia coli biofilm): 32
MBEC [1]: 16
MBIC [1]: 4

GCVFYECIARCRQRGYLSGGYCTINGCQCL-NH2 (disulfide (positions not given here)) [DefB, designed synthetic butterfly defensin analog, C-terminally amidated]
MBIC (Escherichia coli biofilm): 8
MBEC (Escherichia coli biofilm): 32
MBEC [1]: 16
MBIC [1]: 2

GKIPIGAIKKGAKAVGKGLKALNIASTAHDIYSFHHKKKKH [MorA, designed synthetic butterfly moricin analog]
MBIC (Escherichia coli biofilm): 4
MBEC (Escherichia coli biofilm): 8
MBEC [1]: 16
MBIC [1]: 4
CFU count in infected skin (C. albicans): suppress proliferation
MBEC (Candida albicans biofilm): 16
MBIC (Candida albicans biofilm): 4

KWKIFKKIEKVGRNIRDGIIKAGPAVQVVGQAATIYKGK [CecB, designed synthetic butterfly cecropin analog]
MBIC (Escherichia coli biofilm): 2
MBEC (Escherichia coli biofilm): 8
MBEC [1]: 16
MBIC [1]: 2
CFU count in infected skin (E. coli): attenuate growth
CFU count in infected skin (S. aureus): attenuate growth
MBEC (Candida albicans biofilm): 32
MBIC (Candida albicans biofilm): 16
